Assay results: ChEMBL document CHEMBL1201862, “PubChem BioAssay data set” (2004)
Activity calls are given as the source filed them.

Columns and labels:
Protein RecA = target: T1, Protein RecA (Mycobacterium tuberculosis, UniProt P9WHJ3); assay: Fluorescence Cell-Free Homogeneous Dose Retest to Identify Inhibitors of RecA-Intein Splicing Activity. [Related pubchem assays (depositor defined):AID2097, AID2223, AID489010, AID492950]; type: functional
T1 sequence (P9WHJ3 whole entry): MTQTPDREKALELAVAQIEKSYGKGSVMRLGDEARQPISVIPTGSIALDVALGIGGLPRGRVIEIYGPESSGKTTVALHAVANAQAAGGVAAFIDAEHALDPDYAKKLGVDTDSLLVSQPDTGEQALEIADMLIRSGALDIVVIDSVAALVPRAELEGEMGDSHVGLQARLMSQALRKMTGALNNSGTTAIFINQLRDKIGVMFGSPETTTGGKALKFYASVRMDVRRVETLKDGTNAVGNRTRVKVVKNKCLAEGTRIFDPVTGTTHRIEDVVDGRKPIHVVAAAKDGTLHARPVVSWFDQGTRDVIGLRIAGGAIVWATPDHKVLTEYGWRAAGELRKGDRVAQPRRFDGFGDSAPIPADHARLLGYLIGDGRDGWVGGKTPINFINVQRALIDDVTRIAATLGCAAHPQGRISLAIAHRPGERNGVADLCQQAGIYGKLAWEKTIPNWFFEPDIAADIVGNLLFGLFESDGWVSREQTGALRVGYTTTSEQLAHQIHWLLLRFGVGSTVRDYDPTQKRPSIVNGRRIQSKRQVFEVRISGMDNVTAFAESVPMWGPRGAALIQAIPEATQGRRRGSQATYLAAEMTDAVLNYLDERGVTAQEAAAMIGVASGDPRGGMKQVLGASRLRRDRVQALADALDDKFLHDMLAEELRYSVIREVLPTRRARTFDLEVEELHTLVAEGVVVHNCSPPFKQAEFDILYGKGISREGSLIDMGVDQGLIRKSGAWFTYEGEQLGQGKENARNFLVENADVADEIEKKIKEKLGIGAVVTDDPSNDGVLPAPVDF

[1] = target: Induced myeloid leukemia cell differentiation protein Mcl-1 (Homo sapiens, UniProt Q07820); type: functional
[2] = inhibitors of firefly luciferase expression or activity, dose response, H4 neuroglioma cells, luminescence (AID 1990); type: functional, cell-based
[3] = Luminescence Cell-Based Dose Response HTS to Identify Inhibitors of 5'UTR Stem-Loop Driven Prion Protein mRNA Translation in H4 Neuroglioblastoma Cells. [Related pubchem assays: 1827 (Project Summary), 1813 (Primary HTS)]; type: functional
[4] = inhibitors of SNCA 5'UTR-driven reporter translation, confirmation, H4 neuroglioma cells, luminescence (AID 1988); type: functional, cell-based
BJ [5] = assay: cytotoxicity toward BJ-TERT fibroblasts, dose response, cell-based, RAS-independent, luminescence (AID 1933); type: functional; settings: Homo sapiens
BJ [6] = assay: cells; type: functional, cell-based; settings: Homo sapiens
BJ [7] = assay: cytotoxicity toward BJ-TERT-LT-ST fibroblasts, dose response, cell-based, RAS-independent, luminescence (AID 1935); type: functional; settings: Homo sapiens;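 note: BJ fibroblasts immortalized with TERT plus LT and ST oncogenes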
[8] = cytotoxicity toward DRD oncogenic fibroblasts, dose response, cell-based, non-viral oncogenic, luminescence (AID 1934); type: functional; settings: Homo sapiens
[9] = target: T2, Carboxy-terminal domain RNA polymerase II polypeptide A small phosphatase 1 (Homo sapiens, UniProt Q9GZU7); assay: inhibitors of CTDSP1, concentration-response testing, biochemical assay, absorbance-based, actives from ultra-high-throughput screening (AID 540297); type: functional
T2 sequence (Q9GZU7 whole entry): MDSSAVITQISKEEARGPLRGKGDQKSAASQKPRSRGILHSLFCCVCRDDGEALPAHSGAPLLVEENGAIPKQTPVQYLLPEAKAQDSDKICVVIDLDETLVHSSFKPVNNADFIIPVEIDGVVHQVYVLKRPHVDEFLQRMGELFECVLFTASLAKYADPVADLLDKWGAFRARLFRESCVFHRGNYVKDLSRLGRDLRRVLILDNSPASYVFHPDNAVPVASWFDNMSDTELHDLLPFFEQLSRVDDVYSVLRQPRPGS

[10] = inhibitors of intracellular T. cruzi replication, confirmation, NIH3T3 host cells, beta-gal luminescence (AID 2044); type: functional, cell-based;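 note: intracellular parasites grown in NIH/3T3 mouse fibroblasts as host cells; luminescent beta-galactosidase reporter signal from transgenic T. cruzi replicating inside host cells; inhibitors lower the luminescence signal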
[11] = target: T3, Calpain-2 catalytic subunit (Sus scrofa, UniProt P43367); assay: pig calpain II inhibitor potency, dose response, biochemical, fluorogenic peptide substrate (AID 1420); type: functional
T3 sequence (P43367 whole entry): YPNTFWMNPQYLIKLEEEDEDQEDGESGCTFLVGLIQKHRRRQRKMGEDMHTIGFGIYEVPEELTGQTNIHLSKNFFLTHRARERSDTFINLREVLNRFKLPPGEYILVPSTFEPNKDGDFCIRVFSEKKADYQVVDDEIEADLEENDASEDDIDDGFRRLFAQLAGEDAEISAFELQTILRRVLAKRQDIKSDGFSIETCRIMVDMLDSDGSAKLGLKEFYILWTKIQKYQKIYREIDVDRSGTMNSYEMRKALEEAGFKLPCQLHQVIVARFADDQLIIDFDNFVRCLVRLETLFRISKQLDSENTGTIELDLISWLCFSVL

[12] = cytotoxicity toward NIH3T3 fibroblasts, dose response, counter-screen, cell-based, ATP luminescence, mouse fibroblasts (AID 2010); type: functional;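 note: cells exposed to compound for about 90 hours before reading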
[13] = inhibitors of clade B AD8 Env fusion, dose response, cell-based, cherry-pick (AID 652062); type: functional;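 note: luciferase signal from cell-cell fusion driven by HIV-1 clade B AD8 Env; potency is for inhibitors of fusion seen as a drop in luminescence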
[14] = target: T4, Heat shock factor protein 1 (Mus musculus, UniProt P38532); assay: inhibition of MG132-induced HSE-luciferase signal, confirmation, cell-based, NIH3T3, luminescence, dose retest (AID 2382); type: functional;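 note: NIH3T3 fibroblasts with HSF1-driven luciferase reporter stressed by proteasome inhibitor MG132; luminescence from HSF1-driven luciferase expression after 8 hours of MG132 stress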
T4 sequence (P38532 whole entry): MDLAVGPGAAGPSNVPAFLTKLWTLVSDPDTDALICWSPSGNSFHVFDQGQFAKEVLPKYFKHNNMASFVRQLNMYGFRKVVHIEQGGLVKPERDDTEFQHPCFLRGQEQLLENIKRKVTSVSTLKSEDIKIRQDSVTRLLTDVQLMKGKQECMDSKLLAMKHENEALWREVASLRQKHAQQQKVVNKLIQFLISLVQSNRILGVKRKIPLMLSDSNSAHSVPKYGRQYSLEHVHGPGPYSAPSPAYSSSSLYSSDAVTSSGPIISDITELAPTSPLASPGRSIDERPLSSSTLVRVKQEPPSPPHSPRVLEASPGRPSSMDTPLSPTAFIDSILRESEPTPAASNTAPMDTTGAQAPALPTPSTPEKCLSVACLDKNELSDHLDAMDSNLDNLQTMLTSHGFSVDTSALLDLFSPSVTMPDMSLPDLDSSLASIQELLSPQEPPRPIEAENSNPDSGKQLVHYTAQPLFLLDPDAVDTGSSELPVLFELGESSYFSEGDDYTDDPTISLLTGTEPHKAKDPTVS

[15] = NIH-3T3 fibroblast cytotoxicity, dose response, cytotoxicity control, cell-based, fluorescence, Alamar Blue, secondary assay (AID 2327); type: functional;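 note: NIH-3T3 mouse fibroblasts cultured with fluconazole at 8 µg/mL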
[16] = C. albicans growth with fluconazole, confirmation, fluorescence, retest (AID 2467); type: functional, cell-based
Cytochrome P450 2C19 = Cytochrome P450 2C19 (Homo sapiens, UniProt P33261); assay: Cytochrome panel assay with activity outcomes. Panel member name: p450-cyp2c19 Compounds with AC50 equal or less than 10 uM are considered active; type: functional; settings: read-out: AC50
H9c2 = assay: cells; type: functional, cell-based; settings: Rattus norvegicus, H9c2, Myocardium;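 note: confirmatory concentration-response retest of ultra-high-throughput screening hits for modulation of myocardial damage; cell death induced by hydrogen peroxide oxidative stress; compound pretreatment for 60 min then peroxide exposure for 2 h; potency is for protecting the cells against peroxide damage rather than for killing them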

Chain of Induced myeloid leukemia cell differentiation protein Mcl-1 (Q07820 whole entry): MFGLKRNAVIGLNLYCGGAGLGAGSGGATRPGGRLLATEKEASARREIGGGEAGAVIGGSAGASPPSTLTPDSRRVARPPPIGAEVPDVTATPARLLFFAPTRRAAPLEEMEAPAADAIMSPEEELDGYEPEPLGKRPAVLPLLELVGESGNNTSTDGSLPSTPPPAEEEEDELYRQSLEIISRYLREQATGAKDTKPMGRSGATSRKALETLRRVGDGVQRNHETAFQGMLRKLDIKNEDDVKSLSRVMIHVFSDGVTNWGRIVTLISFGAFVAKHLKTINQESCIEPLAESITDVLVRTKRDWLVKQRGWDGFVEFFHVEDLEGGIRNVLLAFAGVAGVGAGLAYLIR
Chain of Cytochrome P450 2C19 (P33261 whole entry): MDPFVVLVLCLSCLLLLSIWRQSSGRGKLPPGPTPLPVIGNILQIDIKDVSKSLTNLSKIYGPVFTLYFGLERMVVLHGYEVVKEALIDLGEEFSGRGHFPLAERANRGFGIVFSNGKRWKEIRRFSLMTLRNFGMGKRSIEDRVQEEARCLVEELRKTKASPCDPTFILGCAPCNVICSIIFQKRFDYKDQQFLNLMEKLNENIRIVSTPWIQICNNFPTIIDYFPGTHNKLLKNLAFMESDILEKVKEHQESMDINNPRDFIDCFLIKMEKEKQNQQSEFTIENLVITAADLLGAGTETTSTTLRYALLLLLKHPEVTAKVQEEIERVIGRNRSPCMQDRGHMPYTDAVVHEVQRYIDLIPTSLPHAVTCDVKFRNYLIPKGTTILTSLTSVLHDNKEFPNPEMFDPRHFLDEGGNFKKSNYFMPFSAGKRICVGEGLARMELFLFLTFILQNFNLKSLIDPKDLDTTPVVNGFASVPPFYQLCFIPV

COc1ccccc1-c1cnnc(S)n1
EC50 (Protein RecA): 111 µM (active)

O=C(CNc1ccc2ccccc2c1)N/N=C/C=C/c1cccc([N+](=O)[O-])c1
IC50 [1]: 6.79 µM (active)

CC(C)n1c(SCC(=O)N2c3ccccc3Sc3ccccc32)nc2c1c(=O)n(C)c(=O)n2C
EC50 [2]: 13.3 µM (active)
EC50 [3]: 13.6 µM (active)
EC50 [4]: 22.2 µM (active)

N#C/C(=C\c1cccnc1)c1nc2ccccc2[nH]1
EC50 (BJ [5]): 23.5 µM (active)
EC50 (BJ [6]): > 150 µM (not active)
EC50 (BJ [7]): > 75 µM (not active)
EC50 [8]: 38 µM (active)

Cc1cc(=O)oc2cc(NC(=O)c3cc(F)ccc3F)ccc12
IC50 [9]: 6.83 µM (active)

O=C(CCS(=O)(=O)c1ccc(Br)cc1)NCCC1=CCCCC1
IC50 [9]: 9.5 µM (active)

CC1=Nc2ccccc2N=C(NC(=O)CN2CCN(c3ccccc3)CC2)C1c1ccccc1 (configuration not stated)
EC50 [10]: 2.06 µM (active)
IC50 [11]: > 50 µM (not active)
EC50 [12]: > 30 µM (not active)

NNC(=O)c1nn(-c2ccccc2)cc1O
EC50 [2]: > 120 µM (not active)
EC50 [3]: > 120 µM (not active)
EC50 [4]: > 120 µM (not active)

CN1CCN(c2ccc([N+](=O)[O-])cc2/C=N/NC(=O)c2cccc([N+](=O)[O-])c2)CC1
IC50 [1]: 3.57 µM (active)

CN(C)CCCNC(=O)[C@H]1[C@H](CO)[C@H]2Cn3c(ccc(C4=CCCC4)c3=O)[C@H]2N1CCC(F)(F)F
AC50 [13]: 1.09 µM (active)

COc1cccc2c(C)c(C(=O)O)[nH]c12
EC50 [14]: 5.27 µM (active)
IC50 [1]: 2.81 µM (active)

CCC(C(=O)OCC(=O)Nc1ccccc1-c1ccccc1)c1ccccc1 (configuration not stated)
IC50 [11]: 9.96 µM (not active)

O=C(Nc1ccc(NC(=O)c2cccs2)cc1)c1ccc(Br)o1
EC50 [15]: > 160 µM (inconclusive)
EC50 [16]: 2.22 µM (active)
IC50 [9]: 7.45 µM (active)

Cc1ccc(NC2=NC(=O)/C(=C/C=C/c3ccco3)S2)cc1
IC50 [1]: 8.32 µM (active)

O=C1c2cccc3cc([N+](=O)[O-])cc(c23)C(=O)N1/N=C/c1ccc(O)cc1O
IC50 [1]: 1.44 µM (active)

C[n+]1cn(CC(O)COCc2ccccc2)c2ccccc21 (configuration not stated)
AC50 (Cytochrome P450 2C19): 15.8 µM (inconclusive)
IC50 [9]: 10.8 µM (active)

COc1ccc(N2CCN(C(=O)CCC(=O)c3cc(C)sc3C)CC2)cc1
IC50 [11]: 30.3 µM (not active)

O=C(COC(=O)/C=C/c1ccco1)Nc1ccc(F)cc1Cl
IC50 [9]: 36.6 µM (active)

Cc1cc2ncc(S(C)(=O)=O)c(N)n2n1
EC50 [2]: > 120 µM (not active)
EC50 [3]: > 120 µM (not active)
EC50 [4]: > 120 µM (not active)

CC(NC(=O)CCc1nnc(-c2ccc(-c3ccccc3)cc2)o1)c1nccs1 (configuration not stated)
EC50 [3]: 10 µM (active)

Cc1cc(C(=O)N/N=C/c2cc(Br)ccc2OC(=O)c2ccccc2Cl)[nH]n1
EC50 [2]: 13.4 µM (active)
EC50 [3]: 18.8 µM (active)
EC50 [4]: > 120 µM (not active)
IC50 (H9c2): > 79 µM (inactive)

O=C(CCl)Nc1ccccc1C(=O)c1ccccc1
EC50 (BJ [5]): > 150 µM (not active)
EC50 [14]: > 195 µM (not active)
EC50 (BJ [6]): > 150 µM (not active)
EC50 (BJ [7]): > 150 µM (inconclusive)
EC50 [8]: 35.3 µM (active)

COC(=O)C1=C(Nc2ccc(C)cc2)C=C(C)C(C(=O)OC)C1c1ccc(OC)cc1 (configuration not stated)
EC50 [2]: > 120 µM (not active)
EC50 [3]: 15.5 µM (active)
EC50 [4]: 11 µM (active)

O=C(NCCNCc1ccccc1)c1ccco1
IC50 [9]: 9.15 µM (active)

COc1cc(/C=N/NC(=O)c2ccc([N+](=O)[O-])cc2Cl)cc(Br)c1O
IC50 [1]: 15.2 µM (not active)

CCOc1ccc(C(=O)c2cc([N+](=O)[O-])ccc2Cl)cc1
EC50 (BJ [5]): > 150 µM (not active)
EC50 (BJ [6]): > 150 µM (not active)
EC50 (BJ [7]): > 150 µM (not active)
EC50 [8]: > 150 µM (not active)

COc1ccc(CC(=O)NCc2ccc(-n3cccc3)cc2)cc1OC
EC50 [2]: > 120 µM (not active)
EC50 [3]: 9.97 µM (active)
EC50 [4]: 6.37 µM (active)

O=C(Nc1ccc(Cl)c(Cl)c1)N1N=CCC1c1ccccc1 (configuration not stated)
IC50 [11]: 8.45 µM (not active)

CS(=O)(=O)N(CC(=O)NCCc1ccccc1)c1cccc([N+](=O)[O-])c1
IC50 [11]: 5.74 µM (not active)

COc1ccccc1CNC(=O)COc1cc2c(c3oc(=O)cc(C)c13)CCC(C)(C)O2
EC50 [2]: 16 µM (active)
EC50 [3]: > 120 µM (not active)
EC50 [4]: > 120 µM (not active)

COc1cc2c(C#CCO)c(-c3ccc(C#N)cc3)oc(=O)c2cc1OC
IC50 [9]: 8.45 µM (active)

COCCNC(=O)NC(=O)CN1CCCc2ccccc21
IC50 [11]: < 0.4 µM (not active)

CCOc1cc(S(=O)(=O)n2cc(-c3ccc(F)cc3)c(N)n2)cc(OCC)c1OCC
EC50 [2]: 15.8 µM (active)
EC50 [3]: > 120 µM (not active)
EC50 [4]: > 120 µM (not active)

O=C(c1ccc2c(c1)OCO2)N1CCN(c2ccc(C(F)(F)F)cn2)CC1
IC50 [11]: < 0.4 µM (not active)
